From PMC7760137, “Solid Lipid Nanoparticles as Formulative Strategy to Increase Oral Permeation of a Molecule Active in Multidrug-Resistant Tuberculosis Management” (Pharmaceutics, 2020) come the findings set out here.

For assay [1], the system named is M. tuberculosis H37Rv. The experiment in a line: Drug sensitivity testing, Bactec MGIT 960. Also on record: key: sensitive (S); resistant (R). Conditions: strain H37Rv. It is filed as cell-based, Mycobacterium tuberculosis.
In assay [2] the test system is M. tuberculosis strain 952. The experiment in a line: Drug sensitivity testing, Bactec MGIT 960. It is filed as cell-based, Mycobacterium tuberculosis. Also on record: key: sensitive (S); resistant (R).
The subject of assay [3] is M. tuberculosis strain 1097. As to the kind of experiment: Drug sensitivity testing, Bactec MGIT 960. The assay is classed as cell-based, Mycobacterium tuberculosis. Also on record: key: sensitive (S); resistant (R).
The subject of assay [4] is M. tuberculosis strain 1670. As to the kind of experiment: Drug sensitivity testing, Bactec MGIT 960. The assay is classed as cell-based, Mycobacterium tuberculosis. Also on record: key: sensitive (S); resistant (R).
For assay [5], the system named is M. tuberculosis strain 512. As to the kind of experiment: Drug sensitivity testing, Bactec MGIT 960. It is filed as cell-based, Mycobacterium tuberculosis. Also on record: key: sensitive (S); resistant (R).
Assay [6] deals with M. tuberculosis strain 600. The experiment in a line: Drug sensitivity testing, Bactec MGIT 960. Also on record: key: sensitive (S); resistant (R). The assay is classed as cell-based, Mycobacterium tuberculosis.
The test system of assay [7] is M. tuberculosis strain 368. The experiment in a line: Drug sensitivity testing, Bactec MGIT 960. On the set-up: key: sensitive (S); resistant (R). The assay is classed as cell-based, Mycobacterium tuberculosis.
In assay [8] the test system is M. tuberculosis strain 1762. The experiment in a line: Drug sensitivity testing, Bactec MGIT 960. The assay is classed as cell-based, Mycobacterium tuberculosis. On the set-up: key: sensitive (S); resistant (R).
Assay [9] relates to M. tuberculosis strain 571. The experiment in a line: Drug sensitivity testing, Bactec MGIT 960. The assay is classed as cell-based, Mycobacterium tuberculosis. Also on record: key: sensitive (S); resistant (R).
Assay [10] has as its system M. tuberculosis strain 1120. The experiment in a line: Drug sensitivity testing, Bactec MGIT 960. Also on record: key: sensitive (S); resistant (R). It is filed as cell-based, Mycobacterium tuberculosis.
Assay [11] relates to M. tuberculosis H37Rv strain (ATCC 27294). The experiment in a line: Resazurin microtiter assay (REMA). It is filed as cell-based. The note with it: Mycobacterium tuberculosis, drug alone. The protocol:
REMA assays were performed in sterile 96-well microtiter plates with round-bottom wells, sealed in a plastic bag. Mycobacteria were cultured in Middlebrook 7H11 medium supplemented with OADC. […] Final bacterial inocula were approximately 1–5 × 10^5 CFU/mL. Plates were incubated at 37 °C and were read after 72 h. Once the final visual reading was performed, 30 μL of 0.02% resazurin was added to each well before reincubation overnight. Bacterial growth was measured by the change in color from blue (oxidized state) to pink (reduced), and minimal inhibitory concentration (MIC) was defined as the lowest drug concentration that prevented the color change and, therefore, the mycobacteria growth.

The test system of assay [12] is M. tuberculosis clinical isolate 952. The experiment in a line: microbe, parasite or virus in culture. The note with it: Mycobacterium tuberculosis. The assay is classed as cell-based.
Assay [13] concerns M. tuberculosis clinical isolate 1097. The experiment in a line: microbe, parasite or virus in culture. It is filed as cell-based. The note with it: Mycobacterium tuberculosis.
The subject of assay [14] is M. tuberculosis clinical isolate 1670. The experiment in a line: microbe, parasite or virus in culture. It is filed as cell-based. Conditions: Mycobacterium tuberculosis.
Assay [15] concerns M. tuberculosis clinical isolate 512. The experiment in a line: microbe, parasite or virus in culture. The assay is classed as cell-based. Conditions: Mycobacterium tuberculosis.
Assay [16] has as its system M. tuberculosis clinical isolate 600. The experiment in a line: microbe, parasite or virus in culture. The assay is classed as cell-based. The note with it: Mycobacterium tuberculosis.
Assay [17] deals with M. tuberculosis clinical isolate 368. The experiment in a line: microbe, parasite or virus in culture. The assay is classed as cell-based. Conditions: Mycobacterium tuberculosis.
Assay [18] concerns M. tuberculosis clinical isolate 1762. The experiment in a line: microbe, parasite or virus in culture. The assay is classed as cell-based. Conditions: Mycobacterium tuberculosis.
The test system of assay [19] is M. tuberculosis clinical isolate 571. The experiment in a line: microbe, parasite or virus in culture. The assay is classed as cell-based. The note with it: Mycobacterium tuberculosis.
The subject of assay [20] is M. tuberculosis clinical isolate 1120. The experiment in a line: microbe, parasite or virus in culture. The assay is classed as cell-based. Conditions: Mycobacterium tuberculosis.

≈ marks a conversion by molar mass, not a printed value. A value given as a limit tells only on which side of the number the result lay.

`CC[C@@H](CO)NCCN[C@@H](CC)CO` [EMB, ethambutol]: the “Drug sensitivity test result” value in assay [1] is on record as “S”; in assay [2] it was “S”; in assay [3], “R”; in assay [4], “S”; in assay [5], “R”; in [6], “R”. In addition, the “Drug sensitivity test result” value in assay [7], in assay [8], in assay [9] and in [10] was “R” each time. Also, the MIC is 1 µg/mL (≈ 4.89 µM) in assay [11]; 1 µg/mL (≈ 4.89 µM) in assay [12]; 32 µg/mL (≈ 157 µM) in assay [13]; 1 µg/mL (≈ 4.89 µM) in assay [14]; 4 µg/mL (≈ 19.6 µM) in [15]; more than 16 µg/mL in assay [16]. For the same molecule, the MIC in assay [17] is more than 16 µg/mL; in assay [18], 4 µg/mL (≈ 19.6 µM); in [19] it was more than 16 µg/mL; in assay [20] it was more than 64 µg/mL.

Regarding `NNC(=O)c1ccncc1` [INH, isoniazid], the “Drug sensitivity test result” value in assay [1] was “S”; in [2] it was “S”; in [3], “R”; in assay [4], “S”; in assay [5], “R”; in assay [6], “R”. The “Drug sensitivity test result” value is listed as “R” in [7], “S” in [8], “R” in [9] and “R” in assay [10]. Moreover, the MIC in assay [11] was 0.125 µg/mL (≈ 0.911 µM); in assay [12], 0.062 µg/mL (≈ 0.452 µM); in [13] it was 2 µg/mL (≈ 14.6 µM); in [14] it was 0.125 µg/mL (≈ 0.911 µM); in [15], 1 µg/mL (≈ 7.29 µM); in assay [16] it was more than 1 µg/mL. The MIC is less than 1 µg/mL in assay [17], 0.062 µg/mL (≈ 0.452 µM) in [18], more than 1 µg/mL in assay [19] and more than 16 µg/mL in assay [20].

For the molecule `CO[C@H]1/C=C/O[C@@]2(C)Oc3c(C)c(O)c4c(O)c(c(/C=N/N5CCN(C)CC5)c(O)c4c3C2=O)NC(=O)/C(C)=C\C=C\[C@H](C)[C@H](O)[C@@H](C)[C@@H](O)[C@@H](C)[C@H](OC(C)=O)[C@@H]1C` [RIF, rifampicin], the “Drug sensitivity test result” value is given as “S” in assay [1]; “R” in [2]; “S” in assay [3]; “S” in assay [4]; “R” in assay [5]; “R” in assay [6]. In addition, the “Drug sensitivity test result” value is “S” in assay [7], “R” in [8], “R” in [9] and “R” in [10]. Moreover, the MIC in [11] is 0.25 µg/mL (≈ 0.304 µM); in assay [12] it was 0.5 µg/mL (≈ 0.608 µM); in [13], 0.25 µg/mL (≈ 0.304 µM); in assay [14] it was 0.125 µg/mL (≈ 0.152 µM); in [15], more than 2 µg/mL; in [16] it was more than 2 µg/mL. In addition, the MIC is 0.25 µg/mL (≈ 0.304 µM) in [17], more than 2 µg/mL in [18], more than 2 µg/mL in assay [19] and 8 µg/mL (≈ 9.72 µM) in assay [20].

Take `[H]/N=C(/N)N[C@H]1[C@H](O)[C@@H](O)[C@H](O[C@@H]2O[C@@H](C)[C@](O)(C=O)[C@H]2O[C@@H]2O[C@@H](CO)[C@H](O)[C@@H](O)[C@@H]2NC)[C@@H](N/C(N)=N\[H])[C@@H]1O` [SM, streptomycin]: the “Drug sensitivity test result” value in assay [1] is reported as “S”; in assay [2], “S”; in assay [3] it was “R”; in [4] it was “S”; in [5] it was “S”; in assay [6], “R”. Also, the “Drug sensitivity test result” value in assay [7] is given as “S”; in assay [8], “S”; in [9], “R”; in [10], “R”. Besides, the MIC is 0.125 µg/mL (≈ 0.215 µM) in assay [11]; 0.062 µg/mL (≈ 0.107 µM) in assay [12]; 4 µg/mL (≈ 6.88 µM) in assay [13]; 0.125 µg/mL (≈ 0.215 µM) in assay [14]; 0.5 µg/mL (≈ 0.86 µM) in [15]; more than 4 µg/mL in assay [16]. Also, the MIC in [17] stood at 0.5 µg/mL (≈ 0.86 µM); in [18], 0.125 µg/mL (≈ 0.215 µM); in assay [19], 0.25 µg/mL (≈ 0.43 µM); in [20] it was 4 µg/mL (≈ 6.88 µM).
